Patent US20130190289A1, “COMPOUNDS AND METHODS FOR THE TREATMENT OR PREVENTION OF FLAVIVIRUS INFECTIONS” (priority 2010, published 2013)
Like-named read-outs stand apart in the source and are kept apart here.

Columns and labels:
[1] = test system: HCV replicon (genotype 1b) in Huh7 cell line ET; assay: microbe, parasite or virus in culture; format: cell-based, HCV genotype 1b; conditions: Hepatitis C virus
[2] = [3H]Thymidine incorporation assay (cell toxicity); conditions: human
[3] = Huh-7, read-out: HCV-Replicon-(Luci-ET) 1b_IC50
[4] = Huh-7, 96 h, read-out: HCV-Replicon (Luci-ET)-1b_IC50

SMILES | IC50 [1, 3] | CC50 at 72 h [2] | IC50 [1, 4]
C[C@@H](C(=O)NC1CCOCC1)N(c1cc(C#CC(C)(C)C)sc1C(=O)O)C(=O)[C@H]1CC[C@H](C)CC1 [Compound 19, 5-(3,3-Dimethylbut-1-ynyl)-3-[(trans-4-methylcyclohexanecarbonyl)-[(1S)-1-methyl-2-oxo-2-(tetrahydropyran-4-ylamino)ethyl]amino]thiophene-2-carboxylic acid] | < 0.1 µM | > 100 µM | 
COC1CN(C(=O)C[C@H](C)N(c2cc(C#CC(C)(C)C)sc2C(=O)O)C(=O)[C@H]2CC[C@H](C)CC2)C1 [Compound 116, 5-(3,3-Dimethylbut-1-ynyl)-3-[[(1S)-3-(3-methoxyazetidin-1-yl)-1-methyl-3-oxo-propyl]-(trans-4-methylcyclohexanecarbonyl)amino]thiophene-2-carboxylic acid] | < 0.1 µM | > 100 µM | 
CO[C@H](C)[C@H](C(=O)N1CCOCC1)N(c1cc(C#CC(C)(C)C)sc1C(=O)O)C(=O)[C@H]1CC[C@H](C)CC1 [Compound 74, 5-(3,3-dimethylbut-1-ynyl)-3-[[(1R,2R)-2-methoxy-1-(morpholine-4-carbonyl)propyl]-(trans-4-methylcyclohexanecarbonyl)amino]thiophene-2-carboxylic acid] | < 0.1 µM | > 100 µM | 
CC(C(=O)N(C)C)N(c1cc(C#CC(C)(C)C)sc1C(=O)O)C(=O)[C@H]1CC[C@H](C)CC1 (relative stereo) [Compound 7, 5-(3,3-Dimethyl-but-1-ynyl)-3-[(1-dimethylcarbamoyl-ethyl)-(trans-4-methyl-cyclohexanecarbonyl)-amino]-thiophene-2-carboxylic acid] | < 0.1 µM | 10 to 100 µM | 
C[C@@H](C(=O)N1CC[C@H](O)C1)N(c1cc(C#CC(C)(C)C)sc1C(=O)O)C(=O)[C@H]1CC[C@H](C)CC1 [Compound 29, 5-(3,3-Dimethylbut-1-ynyl)-3-[[(1S)-2-[(3S)-3-hydroxypyrrolidin-1-yl]-1-methyl-2-oxo-ethyl]-(trans-4-methylcyclohexanecarbonyl)amino]thiophene-2-carboxylic acid] | < 0.1 µM | > 100 µM | 
CO[C@@H](C)[C@H](C(=O)N1CCOCC1)N(c1cc(C#CC(C)(C)C)sc1C(=O)O)C(=O)[C@H]1CC[C@H](C)CC1 [Compound 72, 5-(3,3-dimethylbut-1-ynyl)-3-[[(1R,2S)-2-methoxy-1-(morpholine-4-carbonyl)propyl]-(trans-4-methylcyclohexanecarbonyl)amino]thiophene-2-carboxylic acid] | < 0.1 µM | > 100 µM | 
CN(C)CCN1CCCC[C@H](N(c2cc(C#CC(C)(C)C)sc2C(=O)O)C(=O)[C@H]2CC[C@H](C)CC2)C1=O [Compound 145, (S)-5-(3,3-Dimethylbut-1-ynyl)-3-((trans)-4-methyl-N-(1-(2-dimethylaminoethyl)-2-oxoazepan-3-yl)cyclohexanecarboxamido)thiophene-2-carboxylic acid] |  | 10 to 100 µM | < 0.1 µM
COC[C@H](C(=O)N(C)C)N(c1cc(C#CC(C)(C)C)sc1C(=O)O)C(=O)[C@H]1CC[C@H](C)CC1 [Compound 22, 3-[[(1R)-2-(dimethylamino)-1-(methoxymethyl)-2-oxo-ethyl]-(trans-4-methylcyclohexanecarbonyl)amino]-5-(3,3-dimethylbut-1-ynyl)thiophene-2-carboxylic acid] | < 0.1 µM | > 100 µM | 
CC[C@@H](C(=O)N(C)C1CCN(C)CC1)N(c1cc(C#CC(C)(C)C)sc1C(=O)O)C(=O)[C@H]1CC[C@H](C)CC1 [Compound 76, 5-(3,3-Dimethylbut-1-ynyl)-3-[(trans-4-methylcyclohexanecarbonyl)-[(1S)-1-[methyl-(1-methyl-4-piperidyl)carbamoyl]propyl]amino]thiophene-2-carboxylic acid] | < 0.1 µM | 10 to 100 µM | 
CC1CN(C(=O)[C@H](C)N(c2cc(C#CC(C)(C)C)sc2C(=O)O)C(=O)[C@H]2CC[C@H](C)CC2)CCO1 (stereo partly drawn) [Compound 49, 5-(3,3-Dimethylbut-1-ynyl)-3-[(trans-4-methylcyclohexanecarbonyl)-[(1S)-1-methyl-2-(2-methylmorpholin-4-yl)-2-oxo-ethyl]amino]thiophene-2-carboxylic acid] | < 0.1 µM | > 100 µM | 
CC(C)(C)C#Cc1cc(N(CC(=O)N2CCCCC2)C(=O)[C@H]2CC[C@H](C)CC2)c(C(=O)O)s1 [Compound 46] | < 0.1 µM | > 100 µM | 
C[C@H](CN(c1cc(C#CC(C)(C)C)sc1C(=O)O)C(=O)[C@H]1CC[C@H](C)CC1)C(=O)N1CCOCC1 [Compound 109, 5-(3,3-dimethylbut-1-ynyl)-3-[(trans-4-methylcyclohexanecarbonyl)-[(2R)-2-methyl-3-morpholino-3-oxo-propyl]amino]thiophene-2-carboxylic acid] | < 0.1 µM | > 100 µM | 
COCCN(C)C(=O)[C@H](C)N(c1cc(C#CC(C)(C)C)sc1C(=O)O)C(=O)[C@H]1CC[C@H](C)CC1 [Compound 38, 5-(3,3-Dimethylbut-1-ynyl)-3-[[(1S)-2-[2-methoxyethyl(methyl)amino]-1-methyl-2-oxo-ethyl]-(trans-4-methylcyclohexanecarbonyl)amino]thiophene-2-carboxylic acid] | < 0.1 µM | > 100 µM | 
C[C@@H](O)[C@@H](C(=O)N(C)C)N(c1cc(C#CC(C)(C)C)sc1C(=O)O)C(=O)[C@H]1CC[C@H](C)CC1 [Compound 59] | < 0.1 µM | > 100 µM | 
CN1CCOC[C@H](N(C(=O)c2ccc(Cl)cc2Cl)c2cc(C#CC(C)(C)C)sc2C(=O)O)C1=O [Compound 147, (S)-5-(3,3-Dimethylbut-1-ynyl)-3-[(2,4-dichlorobenzoyl)-N-(4-methyl-5-oxo-1,4-oxazepan-6-yl)amino]thiophene-2-carboxylic acid] |  | > 100 µM | 0.1 to 1 µM
CN(C)C(=O)[C@H](CO)N(c1cc(C#CC(C)(C)C)sc1C(=O)O)C(=O)[C@H]1CC[C@H](C)CC1 [Compound 34, 3-[[(1S)-2-(dimethylamino)-1-(hydroxymethyl)-2-oxo-ethyl]-(trans-4-methylcyclohexanecarbonyl)amino]-5-(3,3-dimethylbut-1-ynyl)thiophene-2-carboxylic acid] | < 0.1 µM | > 100 µM | 
COC1CCN(C(=O)C[C@H](C)N(c2cc(C#CC(C)(C)C)sc2C(=O)O)C(=O)[C@H]2CC[C@H](C)CC2)CC1 [Compound 115, 5-(3,3-Dimethylbut-1-ynyl)-3-[[(1S)-3-(4-methoxy-1-piperidyl)-1-methyl-3-oxo-propyl]-(trans-4-methylcyclohexanecarbonyl)amino]thiophene-2-carboxylic acid] | < 0.1 µM | > 100 µM | 
CC[C@H](C(=O)N1CCOCC1)N(c1cc(C#CC(C)(C)C)sc1C(=O)O)C(=O)[C@H]1CC[C@H](C)CC1 [Compound 122, 5-(3,3-dimethylbut-1-ynyl)-3-[(trans-4-methylcyclohexanecarbonyl)-[(1R)-1-(morpholine-4-carbonyl)propyl]amino]thiophene-2-carboxylic acid] |  | > 100 µM | < 0.1 µM
CC(C)(C)C#Cc1cc(N(CC(=O)N2CCOCC2)C(=O)c2ccc(Cl)cc2)c(C(=O)O)s1 [Compound 123, 3-[(4-chlorobenzoyl)-(2-morpholino-2-oxo-ethyl)amino]-5-(3,3-dimethylbut-1-ynyl)thiophene-2-carboxylic acid] |  | > 100 µM | < 0.1 µM
CC1CCC(C(=O)N(c2cc(C#CC(C)(C)C)sc2C(=O)O)[C@@H]2CCN(C)C2=O)CC1 (single isomer, unassigned) [Compound 92] | < 0.1 µM | > 100 µM | 
CC(C)[C@@H](C(=O)N(C)C)N(c1cc(C#CC(C)(C)C)sc1C(=O)O)C(=O)[C@H]1CC[C@H](C)CC1 [Compound 86, 5-(3,3-Dimethylbut-1-ynyl)-3-[[(1S)-1-(dimethylcarbamoyl)-2-methyl-propyl]-(trans-4-methylcyclohexanecarbonyl)amino]thiophene-2-carboxylic acid] | < 0.1 µM | 10 to 100 µM | 
COC1CCCN(C(=O)[C@H](C)N(c2cc(C#CC(C)(C)C)sc2C(=O)O)C(=O)[C@H]2CC[C@H](C)CC2)C1 (stereo partly drawn) [Compound 40, 5-(3,3-Dimethylbut-1-ynyl)-3-[[(1S)-2-(3-methoxy-1-piperidyl)-1-methyl-2-oxo-ethyl]-(trans-4-methylcyclohexanecarbonyl)amino]thiophene-2-carboxylic acid] | < 0.1 µM | > 100 µM | 
COC[C@@H](C(=O)N1CCCC1)N(C(=O)C1CCCCC1)c1cc(C#CC(C)(C)C)sc1C(=O)O [Compound 36, 3-[Cyclohexanecarbonyl-[(1S)-1-(methoxymethyl)-2-oxo-2-pyrrolidin-1-yl-ethyl]amino]-5-(3,3-dimethylbut-1-ynyl)thiophene-2-carboxylic acid] | 0.1 to 1 µM | > 100 µM | 
CC(CC(=O)N1CCCC1)N(c1cc(C#CC(C)(C)C)sc1C(=O)O)C(=O)[C@H]1CC[C@H](C)CC1 (relative stereo) [Compound 101, 5-(3,3-dimethylbut-1-yn-1-yl)-3-((trans)-4-methyl-N-(4-oxo-4-(pyrrolidin-1-yl)butan-2-yl)cyclohexanecarboxamido)thiophene-2-carboxylic acid] | < 0.1 µM | 10 to 100 µM | 
C[C@@H](C(=O)N1CCCC1)N(c1cc(C#CC(C)(C)C)sc1C(=O)O)C(=O)[C@H]1CC[C@H](C)CC1 [Compound 9, 5-(3,3-Dimethylbut-1-ynyl)-3-[(trans-4-methylcyclohexanecarbonyl)-[(1S)-1-methyl-2-oxo-2-pyrrolidin-1-yl-ethyl]amino]thiophene-2-carboxylic acid] | < 0.1 µM | > 100 µM | 
CCN(CC)C(=O)[C@H](C)N(c1cc(C#CC(C)(C)C)sc1C(=O)O)C(=O)[C@H]1CC[C@H](C)CC1 [Compound 8, 3-[[(1S)-2-(diethylamino)-1-methyl-2-oxo-ethyl]-(trans-4-methylcyclohexanecarbonyl)amino]-5-(3,3-dimethylbut-1-ynyl)thiophene-2-carboxylic acid] | < 0.1 µM | > 100 µM | 
